One data set concerns EJM. Put plainly: In vitro cytotoxicity, EJM (Multiple Myeloma). Type of data set: cell-based. Particulars: Homo sapiens, 72 h, read-out: Cytotoxicity IC50, EJM. On the procedure: (§1) All cells were cultivated in RPMI medium 1640 (IX). All media was supplemented with 10 μg/μl penicillin/streptomycin, 10% heat inactivated FBS, 0.1 mM Sodium Pyruvate, 1×MEM NEAA (ThermoFisher) and 1 mM HEPES. The DERL-2 cells had higher FBS (20%) and 40 ng/mL IL-2 was added. hPBMCs were thawed and allowed to acclimatise overnight and then stimulated with 10 μg/mL PHA-M and 40 ng/mL IL-2 for 4 hours before being exposed to test compounds. All cells, except for hPBMCs, were grown to reach log phase before being exposed to the test compounds.
(§2) Test compounds were dissolved in 100% DMSO and added to a 384 assay plate. Additional DMSO was added to maintain the same final DMSO concentration (0.2%) in all wells. 25 μL cell suspension with a concentration of 100000 cells/mL was added to each well. The cells were cultured in a CO2 incubator at 37° C. for 72 h. Plates were equilibrated to room temperature for 30 minutes before adding 20 μL CellTiter-Glo® 2.0 (Promega) reagent to all wells. The plate was then allowed to stabilize for 20 minutes before recording the luminescence (Em filter 700 nm) in an Envision plate reader.

In the next data set the test system is U937. Put plainly: In vitro cytotoxicity, U937 (Histiocytic Lymphoma). Type of data set: cell-based. The note with it: Homo sapiens, U-937, 72 h, read-out: Cytotoxicity IC50, U937. On the procedure: as §1, §2
In another data set the test system is U266. The experiment in a line: In vitro cytotoxicity, U266 (Multiple Myeloma). Type of data set: cell-based. The note with it: Homo sapiens, U-266, 72 h, read-out: Cytotoxicity IC50, U266. On the procedure:
as §1, §2

A further data set deals with DOHH-2. The experiment in a line: In vitro cytotoxicity, DOHH-2 (B Cell Lymphoma). Type of data set: cell-based. The note with it: Homo sapiens, DOHH-2, 72 h, read-out: Cytotoxicity IC50, DOHH-2. The method, then:
as §1, §2

The test system of the next data set is THP-1. The experiment in a line: In vitro cytotoxicity, THP-1 (Acute Myeloid Leukemia). Particulars: Homo sapiens, THP-1, 72 h, read-out: Cytotoxicity IC50, THP-1. Type of data set: cell-based. On the procedure:
as §1, §2

Another data set relates to KMS-12-BM. The experiment in a line: In vitro cytotoxicity, KMS-12-BM (Multiple Myeloma). Type of data set: cell-based. Particulars: Homo sapiens, 72 h, read-out: Cytotoxicity IC50, KMS-12-BM. On the procedure: as §1, §2
Another data set concerns AMO-1. Put plainly: In vitro cytotoxicity, AMO-1 (Multiple Myeloma). The note with it: Homo sapiens, AMO1, 72 h, read-out: Cytotoxicity IC50, AMO-1. Type of data set: cell-based. The method, then: as §1, §2
For a further data set, the system named is HG-3. Put plainly: In vitro cytotoxicity, HG-3 (Chronic Lymphocytic Leukemia). The note with it: Homo sapiens, HG-3, 72 h, read-out: Cytotoxicity IC50, HG-3. Type of data set: cell-based. On the procedure:
as §1, §2

The test system of the next data set is Toledo. Put plainly: In vitro cytotoxicity, Toledo (Diffuse Large B Cell Lymphoma). Type of data set: cell-based. The note with it: Homo sapiens, 72 h, read-out: Cytotoxicity IC50, Toledo. On the procedure: as §1, §2
The test system of a further data set is SK-MM-1. The experiment in a line: In vitro cytotoxicity, SK-MM-1 (Plasma Cell Leukemia). The note with it: Homo sapiens, 72 h, read-out: Cytotoxicity IC50, SK-MM-1. Type of data set: cell-based. The method, then: as §1, §2
The test system of another data set is MM.1S cells. Put plainly: Cellular retention/efflux: intracellular and extracellular concentrations by LC-MS/MS. Type of data set: in vitro ADME, human. On the procedure: Methods: MMA1S cells at 2×10^6 cells/mL were seeded at 250 μL per well in a 96-well plate. Cells were incubated in the presence of a test compound for 5, 15, and 60 min before pelleting cells by centrifugation at +4° C. for 5 min. Cell media was immediately harvested to a second plate and stored at −80° C. until further analysis. Pelleted cells were washed once with ice cold PBS before storage at −80° C. until further analysis.
Cells were lysed and protein in the media were precipitated using acetonitrile dimethylformamide, 9:1 containing internal standard. Samples were centrifuged and the supernatant was analyzed with LC-MS/MS (ACQUITY UPLC-Xevo TQ-S micro) to determine compound concentration.
Example compound 1, bendamustine and melphalan were used as test compounds.
Method: Method described in Biological example 3.
Example compounds 1, 2, 3, 4, 6, 7 and 10 were investigated. Intracellular metabolites are formed from all compounds tested. The compound used for cell treatment was metabolised to the ester-hydrolysed compound (here called Metabolite A) and to the amide-hydrolysed compound (called Metabolite B). The example compound structures and the structures of the two metabolites for the respective compounds were as shown in Table 4. The Metabolites B formed under the conditions tested were compounds with structure as Examples 17 and 18: […]

In general, IC50 refers to the midpoint of a concentration-inhibition curve. Consider `Cn1c(CCCC(=O)O)nc2cc(N(CCCl)CCCl)ccc21` [Bendamustine, bendamustine, reference compound], for which the IC50 with EJM was 64.6 µM; in the data set on U937 it was 27.1 µM; with U266, 83 µM; in the data set with DOHH-2 it was 10.7 µM; in the data set with THP-1 it was 40.2 µM; in the data set with KMS-12-BM, 27.5 µM. Further, the half-maximal inhibitory concentration (IC50) turned out to be 57 µM in the data set on AMO-1, 25.8 µM in the data set on HG-3, 12.5 µM in the data set with Toledo and 73.5 µM in the data set on SK-MM-1. In addition, the “Intracellular concentration (in words)” value in the data set with MM.1S cells (MM.1S cells incubated with test compound 5, 15, 60 min, metabolites measured after treatment with the parent Example compound) is given as “Low intracellular concentrations”. The “Extracellular concentration (in words)” value in the data set on MM.1S cells (media of MM.1S cells incubated with test compound 5, 15, 60 min, metabolites measured after treatment with the parent Example compound) was “quite high and decreased overtime”.

As to `CCOC(=O)[C@H](CC(C)C)NC(=O)[C@@H](N)CCc1nc2cc(N(CCCl)CCCl)ccc2n1C` [Example 1, Ethyl (2S)-2-[[(2S)-2-amino-4-[5-[bis(2-chloroethyl)amino]-1-methyl-benzimidazol-2-yl]butanoyl]amino]-4-methyl-pentanoate], the IC50 in the data set with EJM came to 0.0271 µM; in the data set on U937, 0.0098 µM; in the data set on U266, 0.0214 µM; in the data set with DOHH-2 it was 0.0042 µM; in the data set with THP-1, 0.016 µM; in the data set on KMS-12-BM, 0.0079 µM. Besides, the IC50 is 0.0497 µM in the data set on AMO-1, 0.0257 µM in the data set with HG-3, 0.0045 µM in the data set on Toledo and 0.0347 µM in the data set with SK-MM-1. The “Intracellular hydrolysis / formation of metabolites” value with MM.1S cells (MM.1S cells, 5, 15, 60 min) is “hydrolysis of Example compound 1 took place inside the cells”.

The record behind these values is patent publication US20240316059A1, “PEPTIDE DRUG CONJUGATES” (Oncopeptides AB, priority 2021, published 2024).
